Where “and” joins values, the source holds several entries; their conditions need not be identical. Equal entries are not always repeated.
Columns and labels:
[1] = test system: vacuolar membrane vesicles purified from DTY167 cells (ycf1Δ mutant); type: biochemical, Saccharomyces cerevisiae; conditions: 5 μM gramicidin D, GSH, GSSG 1 mM, GS-conjugates 100 μM
How it was run: (§1)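 ATP-dependent [3H]DNP-GS (66.2 μM) transport measured by filtration and scintillation counting of Ficoll-purified yeast vacuolar vesicles (DTY165 wild type; DTY167 ycf1Δ), 1–60 min at 25 °C in sorbitol/Tris-Mes pH 8.0 with 3 mM ATP, 3 mM MgSO4 and gramicidin-D. Nonenergized uptake without ATP/Mg2+.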

[2] = target: T1, YCF1 (vacuolar membrane vesicles purified from DTY165 cells) (Saccharomyces cerevisiae, UniProt P39109); experiment: [3H]DNP-GS uptake by vacuolar membrane vesicles purified from DTY165 cells; type: biochemical
T1 construct: endogenous in cells; host or cells: S. cerevisiae DTY165 (wild type YCF1), vacuolar membrane vesicles
T1 sequence (P39109 whole entry): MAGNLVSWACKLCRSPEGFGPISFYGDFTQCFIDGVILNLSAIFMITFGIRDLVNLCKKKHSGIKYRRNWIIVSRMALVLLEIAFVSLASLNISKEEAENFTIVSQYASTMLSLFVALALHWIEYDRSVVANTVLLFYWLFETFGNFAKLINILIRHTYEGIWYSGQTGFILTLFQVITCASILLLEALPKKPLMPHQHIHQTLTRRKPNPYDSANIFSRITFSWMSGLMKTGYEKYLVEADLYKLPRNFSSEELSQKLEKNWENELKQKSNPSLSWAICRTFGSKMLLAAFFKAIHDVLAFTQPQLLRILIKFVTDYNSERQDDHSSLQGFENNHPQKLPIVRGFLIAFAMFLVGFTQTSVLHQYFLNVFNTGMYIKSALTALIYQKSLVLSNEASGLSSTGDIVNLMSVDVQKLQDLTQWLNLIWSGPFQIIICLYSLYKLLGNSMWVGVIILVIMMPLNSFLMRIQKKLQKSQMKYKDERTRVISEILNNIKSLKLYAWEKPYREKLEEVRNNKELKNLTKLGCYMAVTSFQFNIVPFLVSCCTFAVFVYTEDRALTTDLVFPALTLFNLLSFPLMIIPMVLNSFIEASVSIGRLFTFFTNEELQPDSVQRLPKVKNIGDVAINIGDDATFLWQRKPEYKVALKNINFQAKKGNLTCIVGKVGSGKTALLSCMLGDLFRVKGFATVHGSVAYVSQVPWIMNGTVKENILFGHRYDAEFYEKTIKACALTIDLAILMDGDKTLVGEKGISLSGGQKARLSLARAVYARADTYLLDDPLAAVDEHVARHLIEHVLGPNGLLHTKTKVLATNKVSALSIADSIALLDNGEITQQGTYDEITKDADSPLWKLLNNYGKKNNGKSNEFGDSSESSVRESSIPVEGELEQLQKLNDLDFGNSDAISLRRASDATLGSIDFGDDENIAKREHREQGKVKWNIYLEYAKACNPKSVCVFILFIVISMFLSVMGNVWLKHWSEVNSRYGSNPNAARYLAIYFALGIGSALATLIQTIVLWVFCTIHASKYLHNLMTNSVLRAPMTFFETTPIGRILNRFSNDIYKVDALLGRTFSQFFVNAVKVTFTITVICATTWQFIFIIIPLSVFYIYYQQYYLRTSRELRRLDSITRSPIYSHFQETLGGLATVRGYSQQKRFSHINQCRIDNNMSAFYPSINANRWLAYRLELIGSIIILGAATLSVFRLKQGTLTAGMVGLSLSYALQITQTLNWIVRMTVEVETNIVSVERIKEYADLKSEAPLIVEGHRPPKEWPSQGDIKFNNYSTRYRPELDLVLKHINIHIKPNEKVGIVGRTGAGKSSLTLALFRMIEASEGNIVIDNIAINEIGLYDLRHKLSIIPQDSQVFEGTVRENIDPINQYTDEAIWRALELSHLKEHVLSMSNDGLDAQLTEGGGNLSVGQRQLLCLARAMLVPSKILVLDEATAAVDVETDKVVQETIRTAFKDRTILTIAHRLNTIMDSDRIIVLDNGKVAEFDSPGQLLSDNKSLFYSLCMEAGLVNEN
How it was run: as §1

DTY167 cells = experiment: Fluorescence microscopy of vacuolar bimane-GS accumulation, DTY167 cells; type: cell-based, Saccharomyces cerevisiae; conditions: 100 μM monochlorobimane, 6 hours
Description: (§2) Cells were grown in YPD medium for 24 hours at 30° C. to an OD600 nm of approximately 1.4, and 100 μl aliquots of the suspensions were transferred to 15 ml volumes of fresh YPD medium containing 100 μM syn-(ClCH2,CH3)-1,5-diazabicyclo-[3.3.0]-[…] (monochlorobimane) (Kosower et al., 1980, J Am. Chem. Soc. 102:4983-4993). After incubation for 6 hours, the cells were pelleted by centrifugation, washed twice with YPD medium lacking monochlorobimane, and viewed without fixation under an Olympus BH-2 fluorescence microscope equipped with a BP-490 UV excitation filter, AFC-0515 barrier filter, and Nomarski optics attachment.

[3] = test system: vacuolar membrane vesicles purified from DTY167 cells (ycf1Δ mutant); type: biochemical, Saccharomyces cerevisiae
Description: In experiments involving cadmium transport, dithiothreitol and EGTA were removed from the suspension medium to prevent the attenuation of YCF1-dependent Cd^2+ transport otherwise exerted by these compounds. Vesiculated vacuolar membranes were subjected to three cycles of 50-fold dilution into simplified suspension medium (1.1 M glycerol, 5 mM Tris-Mes, pH 8.0), centrifugation at 100,000× g for 35 minutes and resuspension in the same medium before use.
Singly radiolabeled ^109 Cd.GSn and doubly radio-labeled ^109 Cd[^3 H].GS^n complexes were prepared by sequential gel-filtrationand anion-exchange chromatography of the reaction products generated by incubating 20 mM ^109 CdSO4 (78.4 mCi/mmol) with 40 mM GSH or 40 mM [^3 H]GSH (240 mCi/mmol) in 15 ml 10 mM phosphate buffer (pH 8.0) containing 150 mM KNO3 at 45° C. for 24 hours. For gel-filtration, 2 ml aliquots of the reaction mixture were applied to a column (40×1.5 cm ID) packed with water-equilibrated Sephadex G-1 5, eluted with deionized water and ^109 Cd and/or ^3 H in the fractions was measured by liquid scintillation counting. The fractions encompassed by each of the two ^109 Cd.GSn peaks identified were pooled, lyophilized and redissolved in 4 ml of loading buffer (5 mM Tris-Mes, pH 8.0). For anion-exchange chromatography, 0.5 ml aliquots of the resuspended lyophilizates from gel-filtration chromatography were applied to a Mono-Q HR5/5 column (Pharmacia) equilibrated with the same buffer. Elution was with a linear gradient of NaCl (0.5 ml/minute; 0-500 mM) dissolved in loading buffer. The individual fractions corresponding to the major peaks of ^109 Cd obtained from the Mono-Q column (one each for the peaks resolved by gel-filtration chromatography) were pooled, lyophilized and resuspended in 4 ml deionized water after liquid scintillation counting.
MgATP-energized, uncoupler-insensitive ^109 Cd^2+ uptake by vacuolar membrane vesicles was measured at 25° C. in 200 μl reaction volumes containing 3 mM ATP, 3 mM MgSO4, 5 μM gramicidin-D, 10 mM creatine phosphate, 16 units/ml creatine kinase, 50 mM KCl, 400 mM sorbitol, 25 mM Tris-Mes (pH 8.0) and the indicated concentrations of ^109 CdSO4, GSH or ^109 Cd- and/or ^3 H-labeled purified Cd.GSn complexes as described herein except that the wash media contained 100 μM CdSO4 in addition to sorbitol (400 mM) and Tris-Mes (3 mM, pH 8.0).

YCF1-specific mRNA = conditions: 24 hour pretreatment; CdSO4 200 μM, CDNB 150 μM
[4] = target: T1, YCF1 (vacuolar membrane vesicles purified from DTY165 cells); experiment: biochemical; type: biochemical
How it was run: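 Vacuolar vesicles from wild-type (DTY165) or ycf1Δ (DTY167) yeast, washed free of DTT/EGTA into glycerol/Tris-Mes pH 8.0. MgATP-energized, uncoupler-insensitive uptake of 109Cd2+, GSH or purified radiolabeled Cd·GSn complexes measured at 25°C. Medium: 3 mM ATP/MgSO4, ATP-regenerating system, 5 μM gramicidin-D, Tris-Mes pH 8.0; washes contained 100 μM CdSO4.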

DTY165 cells = experiment: Fluorescence microscopy of vacuolar bimane-GS accumulation, DTY165 cells; type: cell-based, Saccharomyces cerevisiae; conditions: 100 μM monochlorobimane, 6 hours
Description: as §2

[5] = substrate: N[C@@H](CCC(=O)N[C@@H](CSc1ccc([N+](=O)[O-])cc1[N+](=O)[O-])C(=O)NCC(=O)O)C(=O)O; experiment: AtMRP1-dependent uptake by membrane vesicles from pYES3-AtMRP1-transformed DTY168 cells; type: biochemical, Arabidopsis thaliana; conditions: other: MgATP-dependent, uncoupler-insensitive; pH 8.0
[6] = substrate: N[C@@H](CCC(=O)N[C@@H](CSSC[C@H](NC(=O)CC[C@H](N)C(=O)O)C(=O)NCC(=O)O)C(=O)NCC(=O)O)C(=O)O; experiment: cells, lysate or membranes; conditions: other: MgATP-dependent, uncoupler-insensitive; pH 8.0
[7] = 80 μM 109CdSO4, compound 1 mM, 5 μM gramicidin-D
[8] = 3 mM MgATP, 80 μM 109CdSO4, compound 1 mM, 5 μM gramicidin-D

Molecule: Cc1c(C)n2c(CSC[C@H](NC(=O)CC[C@H](N)C(=O)O)C(=O)NCC(=O)O)c(C)c(=O)n2c1=O [Bimane-GS]
- MgATP-dependent, uncoupler-insensitive DNP-GS uptake plus compound [1]: 4.5 ± 0.4 nmol/mg/10 minutes
- MgATP-dependent, uncoupler-insensitive DNP-GS uptake as percentage of control ([1]; 10 min): 69.2%
- MgATP-dependent, uncoupler-insensitive DNP-GS uptake plus compound ([2]; 5 μM gramicidin D, GSH, GSSG 1 mM, GS-conjugates 100 μM): 25.2 ± 1.1 nmol/mg/10 minutes
- MgATP-dependent, uncoupler-insensitive DNP-GS uptake as percentage of control ([2]; 5 μM gramicidin D, GSH, GSSG 1 mM, GS-conjugates 100 μM, 10 min): 52.6%
- inhibition at 100 µM ([2]; 100 μM compound): ~50%
- vacuolar fluorescence (bimane-GS) (DTY167 cells): severely attenuated

Molecule: [Cd+2] [Cd^2+]
- 109Cd uptake, -MgATP [3, 7]: 4.3 ± 1.3 nmol/mg/10 minutes
- MgATP-dependent, uncoupler-insensitive 109Cd2+ uptake rate ([3]; 80 μM Cd2+, 1 mM GSH): 0.8 nmol/mg/min
- 109Cd uptake, +MgATP [3, 8]: 4.6 ± 2.1 nmol/mg/10 minutes
- increase of YCF1-specific mRNA level (YCF1-specific mRNA): 1.9 fold
- increase of [3H]DNP-GS uptake into vesicles from pretreated cells ([2]; 24 hour pretreatment, CdSO4 200 μM, CDNB 150 μM, 66.2 μM DNP-GS): 1.6 fold
- 109Cd uptake, -MgATP [4, 7]: 5.8 ± 2.4 nmol/mg/10 minutes
- MgATP-dependent, uncoupler-insensitive 109Cd2+ uptake rate ([4]; 80 μM Cd2+, 1 mM GSH): 4.5 nmol/mg/min
- 109Cd uptake, +MgATP [4, 8]: 5.6 ± 1.5 nmol/mg/10 minutes
- increase of 109Cd.GS2 uptake into vesicles from pretreated cells ([4]; 24 hour pretreatment, CdSO4 200 μM, CDNB 150 μM, 50 μM Cd.GS2): 1.4 fold

Molecule: Cc1c(C)n2c(CCl)c(C)c(=O)n2c1=O [monochlorobimane, syn-(ClCH2,CH3)-1,5-diazabicyclo-[3.3.0]-octa-3,6-dione-2,8-dione]
- vacuolar fluorescence (bimane-GS) (DTY165 cells): intense punctate fluorescence

B1: AtMRP1 (Arabidopsis thaliana) (protein)
chain: MGFEPLDWYCKPVPNGVWTKTVDYAFGAYTPCAIDSFVLGISHLVLLILCLYRLWLITKDHKVDKFCLRSKWFSYFLALLAAYATAEPLFRLVMRISVLDLDGAGFPPYEAFMLVLEAFAWGSALVMTVVETKTYIHELRWYVRFAVIYALVGDMVLLNLVLSVKEYYGSFKLYLYISEVAVQVAFGTLLFVYFPNLDPYPGYTPVGTENSEDYEYEELPGGENICPERHANLFDSIFFSWLNPLMTLGSKRPLTEKDVWHLDTWDKTETLMRSFQKSWDKELEKPKPWLLRALNNSLGGRFWWGGFWKIGNDCSQFVGPLLLNELLKSMQLNEPAWIGYIYAISIFVGVVLGVLCEAQYFQNVMRVGYRLRSALIAAVFRKSLRLTNEGRKKFQTGKITNLMTTDAESLQQICQSLHTMWSAPFRIIVALVLLYQQLGVASIIGALFLVLMFPIQTVIISKTQKLTKEGLQRTDKRIGLMNEVLAAMDTVKCYAWENSFQSKVQTVRDDELSWFRKAQLLSAFNMFILNSIPVLVTVVSFGVFSLLGGDLTPARAFTSLSLFSVLRFPLFMLPNIITQMVNANVSLNRLEEVLSTEERVLLPNPPIEPGQPAISIRNGYFSWDSKADRPTLSNINLDIPLGSLVAVVGSTGEGKTSLISAMLGELPARSDATVTLRGSVAYVPQVSWIFNATVRDNILFGAPFDQEKYERVIDVTALQHDLELLPGGDLTEIGERGVNISGGQKQRVSMARAVYSNSDVCILDDPLSALDAHVGQQVFEKCIKRELGQTTRVLVTNQLHFLSQVDKILLVHEGTVKEEGTYEELCHSGPLFQRLMENAGKVEDYSEENGEAEVDQTSVKPVENGNANNLQKDGIETKNSKEGNSVLVKREERETGVVSWKVLERYQNALGGAWVVMMLVICYVLTQVFRVSSSTWLSEWTDSGTPKTHGPLFYNIVYALLSFGQVSVTLINSYWLIMSSLYAAKKMHDAMLGSILRAPMVFFQTNPLGRIINRFAKDMGDIDRTVAVFVNMFMGSIAQLLSTVILIGIVSTLSLWAIMPLLVVFYGAYLYYQNTSREIKRMDSTTRSPVYAQFGEALNGLSSIRAYKAYDRMAEINGRSMDNNIRFTLVNMAANRWLGIRLEVLGGLMVWLTASLAVMQNGKAANQQAYASTMGLLLSYALSITSSLTAVLRLASLAENSLNSVERVGNYIEIPSEAPLVIENNRPPPGWPSSGSIKFEDVVLRYRPELPPVLHGVSFLISPMDKVGIVGRTGAGKSSLLNALFRIVELEKGRILIDECDIGRFGLMDLRKVLGIIPQAPVLFSGTVRFNLDPFSEHNDADLWESLERAHLKDTIRRNPLGLDAEVTEAGENFSVGQRQLLSLARALLRRSKILVLDEATAAVDVRTDVLIQKTIREEFKSCTMLIIAHRLNTIIDCDKVLVLDSGKVQEFSSPENLLSNGESSFSKMVQSTGTANAEYLRSITLENKRTREANGDDSQPLEGQRKWQASSRWAAAAQFALAVSLTSSHNDLQSLEIEDDNSILKKTKDAVVTLRSVLEGKHDKEIEDSLNQSDISRERWWPSLYKMVEGLAVMSRLARNRMQHPDYNLEGKSFDWDNVEM
notes: S. cerevisiae DTY168 (ycf1 null) vacuolar-enriched membrane vesicles
- Km [5]: 48.7 ± 15.4 µM and 73.8 µM and 49.7 ± 15.4 µM
- Km [6]: 219 µM

Reference: patent publication US6166290A, “Glutathione-S-conjugate transport in plants” (The Trustees of the University of Pennsylvania, priority 1997, dated 2000)
